From US20200171026A1, “PROSTACYCLIN RECEPTOR AGONISTS FOR REDUCTION OF BODY FAT” (Allergan, Inc., priority 2017, published 2020)

What was measured:
[1] = system: fat in the triceps region; assay: In vivo human study, topical ointment, body fat calipers in triceps region; details: human subjects; topical ointment 0.003%, 0.03% or 0.3% daily; 6 months
Source text: The following experiment describes a randomized, double-blind study in human subjects to test whether compounds according to the present disclosure, including topical FK-788, reduces fat in the body of individuals.
Multiple human subjects (both male and female), for example, with body mass indices of 30 or more but otherwise healthy, are entered into a randomized double-blind study. Either the left or the right arm is randomized to receive topical FK-788; the other arm receives vehicle only. FK-788 is supplied in a petrolatum-based ointment (the vehicle) at a final concentration of 0%, 0.003%, 0.03% or 0.3%. Ointment containers are unlabeled as to the presence or concentration of FK-788.
Each day, subjects apply a thin film of ointment to the skin over the respective triceps while wearing new, clean surgical gloves. Subjects are instructed to refrain from washing the treated area for at least 8 hours and are instructed to refrain from wearing tight clothing or occlusive dressings that will come into contact with the treated area.
Body fat calipers are used to measure fat in the triceps region bilaterally on a weekly basis. The study continues for 6 months. […] As a result, this contemplated outcome will show, in vivo, that compounds according to the present invention, including FK-788, can reduce fat.

[2] = system: human adipocytes; assay: human adipocyte lipolysis assay (glycerol released into the medium); format: cell-based; details: for glycerol release / lipolytic activity in human adipocytes (FIG. 2): fully differentiated human adipocytes, 1 μM
Experimental: Two weeks after the initiation of differentiation, differentiated cells appeared rounded with large lipid droplets apparent in the cytoplasm, and were thereby considered mature adipocytes. At this time, the differentiation medium was washed out. Two days after washing out the differentiation agents, the mature adipocytes were treated with different concentrations of PGI2 receptor agonist compounds cicaprost, beraprost, FK-788 and selexipag. Lipolytic activity was assessed by the measurement of glycerol released into the medium from triglyceride breakdown. In this experiment, lipolysis was measured using a human adipocyte lipolysis assay kit (ZenBio, Inc., Research Triangle Park, N.C., Cat #LIP-1-SPF).
The data are provided in FIG. 1 and are expressed as fold induction over a buffer control (mature adipocytes treated with vehicle buffer in the absence of any agonist). Each data point on the graph in FIG. 1 represents the mean±SEM of 2 to 8 experiments.
The in vitro human adipocytes lipolysis results for cicaprost and FK-788 from Example 1 at the 1 μM concentration were compared to lipolysis induced by those compounds in ex vivo mouse adipocytes, which are commonly used to detect lipolytic activity.

[3] = fold induction over buffer control

Row | SMILES | fat in treated arm compared to vehicle-treated arm [1] | glycerol release / lipolytic activity in human adipocytes (FIG. 2) [2, 3] | relative potency among the PGI2 receptor agonists tested ([2]; human mature adipocytes, cicaprost, beraprost, FK-788 and selexipag compared) | increase in glycerol production ([2]; human mature adipocytes, concentration of about 0.1 μM, fold induction over buffer control)
1 | O=C(O)COc1cccc2c1CC[C@](O)(COC(=O)N(c1ccccc1)c1ccccc1)C2 [FK-788, 2-[[(6R)-6-[di(phenyl)carbamoyloxymethyl]-6-hydroxy-7,8-dihydro-5H-naphthalen-1-yl]oxy]acetic acid] | lower fat | increased glycerol release | – | –
2 | CCC#CC[C@H](C)[C@H](O)C#C[C@@H]1[C@H]2C/C(=C/COCC(=O)O)C[C@H]2C[C@H]1O [cicaprost, 2-[(2E)-2-[(3aS,4S,5R,6aS)-5-hydroxy-4-[(3S,4S)-3-hydroxy-4-methylnona-1,-6-diynyl]-3,3a,4,5,6,6a-hexahydro-1H-pentalen-2-ylidene]ethoxy]acetic acid] | – | increased glycerol release | most potent agonist | approximately 3 fold
